ChEMBL document CHEMBL1667752 (Eur J Med Chem, 2011)

Tests used:
Cannabinoid receptor 2 = Cannabinoid receptor 2 (Homo sapiens, UniProt P34972); test: Displacement of [3H]CP 55940 from human CB2 receptor in cell free system
Cannabinoid receptor 1 = Cannabinoid receptor 1 (Homo sapiens, UniProt P21554); test: Displacement of [3H]CP 55940 from human CB1 receptor in cell free system
Homo sapiens = species: Homo sapiens; test: Selectivity ratio of Ki for human CB1 to Ki for human CB2

Chain of Cannabinoid receptor 2 (P34972 whole entry): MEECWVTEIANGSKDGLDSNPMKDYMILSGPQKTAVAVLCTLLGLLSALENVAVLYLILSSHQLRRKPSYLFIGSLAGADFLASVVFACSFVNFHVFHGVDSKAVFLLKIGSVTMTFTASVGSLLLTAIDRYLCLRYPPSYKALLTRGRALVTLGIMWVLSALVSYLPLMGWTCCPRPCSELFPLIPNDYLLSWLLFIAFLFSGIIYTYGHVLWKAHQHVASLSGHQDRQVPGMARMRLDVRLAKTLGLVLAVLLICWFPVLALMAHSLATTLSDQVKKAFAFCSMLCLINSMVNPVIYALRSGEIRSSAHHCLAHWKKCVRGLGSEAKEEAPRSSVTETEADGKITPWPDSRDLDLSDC
Chain of Cannabinoid receptor 1 (P21554 whole entry): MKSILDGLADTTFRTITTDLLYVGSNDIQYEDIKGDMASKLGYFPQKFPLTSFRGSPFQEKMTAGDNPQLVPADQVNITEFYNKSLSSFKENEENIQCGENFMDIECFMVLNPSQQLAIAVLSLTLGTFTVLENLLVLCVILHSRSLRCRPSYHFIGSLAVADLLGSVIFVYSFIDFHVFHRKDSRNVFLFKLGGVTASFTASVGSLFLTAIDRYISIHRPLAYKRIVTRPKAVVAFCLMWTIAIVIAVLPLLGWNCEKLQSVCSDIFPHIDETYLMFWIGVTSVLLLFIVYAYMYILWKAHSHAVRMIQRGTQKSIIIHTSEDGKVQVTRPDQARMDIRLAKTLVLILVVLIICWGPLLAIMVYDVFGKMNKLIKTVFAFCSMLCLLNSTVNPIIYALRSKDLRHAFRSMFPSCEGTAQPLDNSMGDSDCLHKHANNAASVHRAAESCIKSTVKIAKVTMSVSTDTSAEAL

Row | SMILES | Ki (Cannabinoid receptor 2; read-out: Ki) [nM] | Ki (Cannabinoid receptor 1) [nM] | log(ratioKi) (Homo sapiens) | Ki (Cannabinoid receptor 2; read-out: pKi (converted)) [nM]
1 | COCc1ccc2c(c1)c(C(=O)C1C(C)(C)C1(C)C)cn2CC1CCOCC1 | 25 | – | – | –
2 | CC1(C)C(C(=O)c2cn(CC3CCOCC3)c3ccc(N)cc23)C1(C)C | 9 | 1000 | 2.05 | –
3 | CCCC(C)(C)c1ccc2c(c1)OC(C)(C)[C@@H]1CC=C(C)C[C@@H]21 | – | – | 2.3 | –
4 | CCCCCn1cc(C(=O)NC23CC4CC(CC(C4)C2)C3)c(=O)c2cc(-c3ccc(C#N)cc3)ccc21 | – | – | 2.38 | –
5 | Cc1ccc2c(C(=O)C3C(C)(C)C3(C)C)cn(CC3CCOCC3)c2c1 | 0.2 | – | – | –
6 | CCCCCn1cc(C(=O)NC23CC4CC(CC(C4)C2)C3)c(=O)c2cc(C3CCCCC3)ccc21 | – | – | 3.14 | –
7 | Cc1c(Cl)ccc2c(=O)c(C(=O)NC34CC5CC(CC(C5)C3)C4)c[nH]c12 | 25.5 | > 10000 | 2.59 | –
8 | C=C1CC[C@@H]2[C@@H](C1)c1c(OC)cc(C(C)(C)CCCCCC)cc1OC2(C)C | 11.8 | 4890 | 2.26 | –
9 | Cc1ccc(NC(=O)C2C(C)(C)C2(C)C)cc1S(=O)(=O)N1CCOCC1 | – | – | 2.16 | –
10 | O=S(=O)(CCCC(F)(F)F)Oc1cccc(Oc2cccc3c2C[C@H](CO)C3)c1 | – | – | – | 4.27
11 | COc1ccc(OC)c2c(=O)c(C(=O)NC34CC5CC(CC(C5)C3)C4)c[nH]c12 | 52.6 | 2100 | 1.6 | –
12 | CCCCCn1cc(C(=O)NC23CC4CC(CC(C4)C2)C3)c(=O)c2cc(CCc3ccccc3)ccc21 | – | – | 2.27 | –
13 | CCCCCn1c(C)c(C(=O)c2ccc(CCCC)c3ccc(C)cc23)c2ccccc21 | 6.5 | 42 | 0.81 | –
14 | CCCCCn1cc(C(=O)NC23CC4CC(CC(C4)C2)C3)c(=O)c2cc(-c3ccc(O)cc3)ccc21 | – | – | 3.38 | –
15 | Cc1nc(C(=O)NC23CC4CC(CC(C4)C2)C3)c(C)n1-c1ccccc1 | – | – | 3.2 | –
16 | CCCCCn1c(C)c(C(=O)c2ccc(CCC)c3ccccc23)c2ccccc21 | 0.6 | 1.3 | 0.32 | –
17 | C#CCn1cc(C(=O)NC23CC4CC(CC(C4)C2)C3)c(=O)c2cc(Br)ccc21 | – | – | 1.81 | –
18 | CC1=CC[C@@H]2[C@@H](C1)c1c(O)cc(C(C)(C)C3CCCCCC3)cc1OC2(C)C | – | – | 0.63 | –
19 | CCCCCn1cc(C(=O)NC23CC4CC(CC(C4)C2)C3)c(=O)c2cc(-c3cccs3)ccc21 | – | – | 3.68 | –
20 | CC1=CC[C@@H]2[C@@H](C1)c1c(OC(=O)CCCN3CCOCC3)cc(C(C)(C)CCCCC#N)cc1OC2(C)C | 8 | 8.4 | 0.02 | –
21 | Cc1ccc(C(=O)NC2C(C)(C)[C@@H]3CC[C@]2(C)C3)cc1S(=O)(=O)N1CCOCC1 (stereo partly drawn) | 3.9 | 130 | 1.5 | –

Row | SMILES | Ki (Cannabinoid receptor 2; read-out: Ki) [nM] | Ki (Cannabinoid receptor 1) [nM] | log(ratioKi) (Homo sapiens) | Ki (Cannabinoid receptor 2; read-out: pKi (converted)) [nM]
22 | CC1(C)C(C(=O)c2cn(CCN3CCOCC3)c3cccc(N)c23)C1(C)C | – | 3500 | 2.05 | –
23 | CC1(C)C(C(=O)c2cn(CC3CCOCC3)c3cc(O)ccc23)C1(C)C | 8.3 | 2950 | 2.55 | –
24 | C#Cc1ccc2c(c1)c(=O)c(C(=O)NC13CC4CC(CC(C4)C1)C3)cn2CCCCC | – | – | 3.05 | –
25 | Cc1ccc(NC(=O)C2CCCCC2(C)C)cc1S(=O)(=O)N1CCOCC1 (stereo not drawn) | – | – | 1.85 | –
26 | CCCCCOc1c(OC)ccc2cc(C(=O)NCc3ccc4c(c3)OCO4)c(=O)[nH]c12 | – | 2370 | – | –
27 | CC1=CC[C@@H]2[C@@H](C1)c1c(O)cc(C3(C#N)CCCCC3)cc1OC2(C)C | – | – | 0.34 | –
28 | CCCCCn1cc(C(=O)NC23CC4CC(CC(C4)C2)C3)c(=O)c2cc(-c3ccc(Cl)s3)ccc21 | – | – | 2.35 | –
29 | CC1=CC[C@@H]2[C@@H](C1)c1c(O)cc(C3(C4CCCCC4)SCCS3)cc1OC2(C)C | – | – | 0.24 | –
30 | CCc1nc(C(=O)NC23CC4CC(CC(C4)C2)C3)c(C)n1-c1ccccc1 | – | – | 3.41 | –
31 | CC1(C)C(C(=O)c2cn(CC3CCOCC3)c3c(COc4ccccc4)cccc23)C1(C)C | 3 | 28 | 0.98 | –
32 | COc1ccc(-c2oc3cc(OC)ccc3c2C(=O)c2ccc(C#N)cc2)cc1 | – | – | – | 14800
33 | CCCCCn1cc(C(=O)NC23CC4CC(CC(C4)C2)C3)c(=O)c2cc(CC)ccc21 | – | – | 1.74 | –
34 | CCCCCn1cc(C(=O)NC23CC4CC(CC(C4)C2)C3)c(=O)c2ccccc21 | – | – | 0.95 | –
35 | CCCCCn1cc(C(=O)NC23CC4CC(CC(C4)C2)C3)c(=O)c2cc(I)ccc21 | – | – | 2.01 | –
36 | Cc1nc(C(=O)Nc2ccccc2C(F)(F)F)c(C)n1-c1ccccc1 | 3.5 | 1420 | 2.6 | –
37 | CC1(C)C(C(=O)c2cn(CC3CCOCC3)c3ccc(OCc4ccccc4)cc23)C1(C)C | – | 234 | 2.3 | –
38 | CCCCCCC1CCCc2c1cc1c(c2O)[C@@H]2CC(C)=CC[C@H]2C(C)(C)O1 (stereo partly drawn) | 5.4 | 22.3 | 0.6 | –
39 | CCCCCn1cc(C(=O)NC23CC4CC(CC(C4)C2)C3)c(=O)c2cc(C(F)(F)F)ccc21 | – | – | 2.34 | –
40 | CCCCCCC1(c2cc(O)c3c(c2)OC(C)(C)[C@@H]2CC=C(C)C[C@@H]32)CC1 | 0.9 | 1 | 0.07 | –
41 | CCCCCn1cc(C(=O)NC23CC4CC(CC(C4)C2)C3)c(=O)c2cc(-n3ccnc3)ccc21 | – | – | 3.1 | –
42 | Cc1ccc(NC(=O)C(C)(C(F)(F)F)C(F)(F)F)cc1S(=O)(=O)N1CCOCC1 | – | – | 1.31 | –

Row | SMILES | Ki (Cannabinoid receptor 2; read-out: Ki) [nM] | Ki (Cannabinoid receptor 1) [nM] | log(ratioKi) (Homo sapiens) | Ki (Cannabinoid receptor 2; read-out: pKi (converted)) [nM]
43 | CC1(Cc2ccccc2)COc2cc(C(=O)N3CCCCC3)ccc21 (stereo not drawn) | – | > 10000 | 1.37 | –
44 | CC1(C)C(C(=O)c2cn(CC3CCOCC3)c3cc(-c4ccccc4)ccc23)C1(C)C | 0.4 | – | 2.27 | –
45 | CCCCCCC1(c2cc(O)c3c(c2)OC(C)(C)[C@@H]2CC=C(C)C[C@@H]32)OCCO1 | 0.2 | 0.5 | 0.43 | –
46 | COCCn1cc(C(=O)C2C(C)(C)C2(C)C)c2ccccc21 | – | – | 2.35 | –
47 | CCC(C)(C)C(=O)Nc1cc(CN2CCOCC2)c(C)cn1 | – | – | 2.19 | –
48 | COc1ccc2c(c1)c(C(=O)C1C(C)(C)C1(C)C)cn2CC1CCOCC1 | – | – | 2 | –
49 | CN1CCCCC1Cn1cc(C(=O)c2cc([N+](=O)[O-])ccc2I)c2ccccc21 (stereo not drawn) | – | – | 2.64 | –
50 | CCCCc1c(C(=O)NC23CC4CC(CC(C4)C2)C3)nc(C)n1-c1ccccc1 | – | – | 2.3 | –
51 | CCCCCn1cc(C(=O)NC2C(C)(C)[C@@H]3CC[C@@]2(C)C3)c(=O)c2cc(-c3ccco3)ccc21 (stereo partly drawn) | 2.4 | 480 | 2.3 | –
52 | Cc1ccc2c(c1)Cc1c(C(=O)NN3CCCCC3)nn(-c3ccc(Cl)cc3Cl)c1-2 | 0.04 | 363 | 3.95 | –
53 | COc1cccc2c(C(=O)C3C(C)(C)C3(C)C)cn(CC3CCOCC3)c12 | 0.1 | – | – | –
54 | Cc1ccc(-c2nc(CC(C)(C)C)cs2)cc1S(=O)(=O)N1CCOCC1 | – | – | 1.58 | –
55 | CC1(C)C(C(=O)c2cn(C[C@@H]3CCCO3)c3ccccc23)C1(C)C | – | – | 1.82 | –
56 | C=CCCn1cc(C(=O)NC23CC4CC(CC(C4)C2)C3)c(=O)c2cc(-c3ccco3)ccc21 | – | – | 3.35 | –
57 | N#Cc1c(Oc2cccc(OS(=O)(=O)CCCC(F)(F)F)c2)cccc1C(F)(F)F | – | 48.3 | 0.03 | –
58 | CCCCC/C=C\C/C=C\C/C=C\C/C=C\CCCC(=O)N[C@H]1C[C@@H]1O | – | – | – | 191
59 | CCCCCn1cc(C(=O)NC23CC4CC(CC(C4)C2)C3)c(=O)c2cc(-c3c(C)noc3C)ccc21 | – | – | – | 102
60 | COCCn1c(C)c(C(C)(C)C)s/c1=N\C(=O)c1ccc(C(F)(F)F)cc1 | 10 | 4100 | 2.6 | –
61 | CC1=CC[C@@H]2[C@@H](C1)c1c(O)cc(C(C)(C)c3cccs3)cc1OC2(C)C | 0.91 | 12.3 | 1.13 | –
62 | CCCCCCC(C)(C)c1cc(OC)c2c(c1)OC(C)(C)[C@@H]1CC=C(C)C[C@@H]21 | 6.4 | 1040 | 2.21 | –
63 | Cc1c(C(=O)NC2CCCCC2)nn(-c2ccc(Cl)c(Cl)c2)c1-n1cccc1 | – | – | 0.52 | –

Row | SMILES | Ki (Cannabinoid receptor 2; read-out: Ki) [nM] | Ki (Cannabinoid receptor 1) [nM] | log(ratioKi) (Homo sapiens) | Ki (Cannabinoid receptor 2; read-out: pKi (converted)) [nM]
64 | CCCCCCNC(=O)c1cn(CCCCC)c2ccc(Br)cc2c1=O | – | – | – | 891
65 | CCCCCn1cc(C(=O)NC2C3CC4CC(C3)CC2C4)c(=O)c2ccccc21 (stereo not drawn) | – | – | 2.16 | –
66 | CCCCCn1cc(C(=O)NC23CC4CC(CC(C4)C2)C3)c(=O)c2cc(Br)ccc21 | – | – | 1.82 | –
67 | CCCCCn1cc(C(=O)NC23CC4CC(CC(C4)C2)C3)c(=O)c2cc(-c3ccc(F)cc3F)ccc21 | – | – | 2.79 | –
68 | CCCCCn1cc(C(=O)NC23CC4CC(CC(C4)C2)C3)c(=O)c2cc(C3=CCCCC3)ccc21 | – | – | 3.08 | –
69 | CCC(C)(C)C(=O)Cc1cc(C)c(C)c(S(=O)(=O)N2CCCCC2)c1 | 2.7 | 650 | 2.38 | –
70 | CCCCCn1cc(C(=O)NC23CC4CC(CC(C4)C2)C3)c(=O)c2cc(-c3ccccc3)ccc21 | – | – | 3.42 | –
71 | CCCCCn1cc(C(=O)NC23CC4CC(CC(C4)C2)C3)c(=O)c2cc(-c3ccc(Cl)cc3)ccc21 | – | – | 3 | –
72 | COCCn1c(C)c(C)s/c1=N\C(=O)C1C(C)(C)C1(C)C | 0.64 | – | 2.62 | –
73 | Cc1ccc(-c2nc(CC3CCCCC3)cs2)cc1S(=O)(=O)N1CCOCC1 | – | – | 1.22 | –
74 | CCCCCn1cc(C(=O)NC23CC4CC(CC(C4)C2)C3)c(=O)c2cc(Sc3ccccc3)ccc21 | – | – | 2.28 | –
75 | Cc1c(C(=O)NC2CCCCC2)nn(-c2ccc(Cl)c(Cl)c2)c1-n1c(C)ccc1C | – | – | 1.05 | –
76 | CC1=CC[C@@H]2[C@@H](C1)c1c(O)cc(-c3cccc4ccccc34)cc1OC2(C)C | – | – | 0.09 | –
77 | CCCCCn1c(C)c(C(=O)c2cccc3ccccc23)c2ccccc21 | – | – | 0.28 | –
78 | Cc1ccc(C(=O)NC(C(C)(C)C)C(C)(C)C)cc1S(=O)(=O)N1CCOCC1 | – | – | 0.95 | –
79 | CCCCCn1cc(C(=O)NC23CC4CC(CC(C4)C2)C3)c(=O)c2cc(-c3cc(C)c(OC)c(C)c3)ccc21 | – | – | 1.38 | –
80 | COc1ccc2c(c1)c(CCN1CCOCC1)c(C)n2C(=O)c1cccc(Cl)c1Cl | – | – | 2.21 | –
81 | CCCCCn1cc(C(=O)NC23CC4CC(CC(C4)C2)C3)c(=O)c2cc(-c3ccco3)ccc21 | – | – | 4.15 | –
82 | O=C(c1cn(CC2CCOCC2)c2ccccc12)C1CCCC1 | – | – | 1.07 | –
